System: influenza proteins (A/Panama/2007/99)
Type: in vivo, Balb/C mice
Settings: intranasal, day 0 and 14, 5 μg influenza proteins, lipopeptide in reconstituted membranes

N-palmitoyl-S-2,3(bispalmitoyloxy)-propyl-cysteinyl-seryl-(lysil)3-lysine [lysine derivative]
enhancement of the immune response: approximately equivalent enhancement of the immune response

N-palmitoyl-S-2,3(bispalmitoyloxy)-propyl-cysteinyl-seryl-(prolyl)3-proline [proline derivative]
enhancement of the immune response: approximately equivalent enhancement of the immune response
